The values below come from PubChem BioAssay AID330 (DTP/NCI, 2004).

Each structure is given as a SMILES string. Several values for one entry are separate records, joined by “and”; a condition that tells them apart may be missing. Equal entries are not always repeated. Inconclusive results and toxic doses are left out.

The test has as its system P388 leukemia ip, CD2F1 mice, survival T/C. Kind of test: NCI In Vivo Anticancer Drug Screen. Data for tumor model P388 Leukemia (intraperitoneal) in CD2F1 (CDF1) mice. Particulars: endpoint: median survival time, higher = longer survival. Summed up: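 Mice carrying the transplanted tumor received test compound or vehicle. Survival was recorded in each group, and the value is the treated-group measurement divided by that of the vehicle-treated control group.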

The mark [1] stands for this setting: dose: 50.0 mg/kg/injection, schedule: Q01DX009 (ip), vehicle: saline with Tween-80.
Where [2] appears, read: dose: 100.0 mg/kg/injection, schedule: Q01DX009 (ip), vehicle: saline with Tween-80.
The mark [3] stands for this setting: dose: 50.0 mg/kg/injection, schedule: Q01DX005 (ip), vehicle: saline with Tween-80.
[4] abbreviates: dose: 100.0 mg/kg/injection, schedule: Q01DX005 (ip), vehicle: saline with Tween-80.
The mark [5] stands for this setting: dose: 200.0 mg/kg/injection, schedule: Q01DX005 (ip), vehicle: saline with Tween-80.
Setting [6] is: dose: 50.0 mg/kg/injection, schedule: Q01DX005 (ip), vehicle: Klucel (hydroxypropylcellulose) (HPC).
The mark [7] stands for this setting: dose: 100.0 mg/kg/injection, schedule: Q01DX005 (ip), vehicle: Klucel (hydroxypropylcellulose) (HPC).
[8] abbreviates: dose: 200.0 mg/kg/injection, schedule: Q01DX005 (ip), vehicle: Klucel (hydroxypropylcellulose) (HPC).
[9] abbreviates: dose: 60.0 mg/kg/injection, schedule: Q01DX005 (ip), vehicle: Klucel (hydroxypropylcellulose) (HPC).
[10] abbreviates: dose: 120.0 mg/kg/injection, schedule: Q01DX005 (ip), vehicle: Klucel (hydroxypropylcellulose) (HPC).
The mark [11] stands for this setting: dose: 240.0 mg/kg/injection, schedule: Q01DX005 (ip), vehicle: Klucel (hydroxypropylcellulose) (HPC).

Regarding `Clc1ccc2c(NCCCCCCCCNc3c4ccccc4nc4cc(Cl)ccc34)c3ccccc3nc2c1`, the T/C (dose: 0.63 mg/kg/injection, schedule: Q01DX009 (ip), vehicle: other) is 112 % of control; the T/C (dose: 1.25 mg/kg/injection, schedule: Q01DX009 (ip), vehicle: other) is 108 % of control; the T/C (dose: 2.5 mg/kg/injection, schedule: Q01DX009 (ip), vehicle: other) was 110 % of control; the T/C (dose: 3.75 mg/kg/injection, schedule: Q01DX009 (ip), vehicle: other) is 108 % of control; the T/C (dose: 5.0 mg/kg/injection, schedule: Q01DX009 (ip), vehicle: other) was 112 % of control; the T/C (dose: 7.5 mg/kg/injection, schedule: Q01DX009 (ip), vehicle: other) is 110 % of control. Further, the T/C is, setting by setting: (dose: 10.0 mg/kg/injection, schedule: Q01DX009 (ip), vehicle: other) 110 % of control; (dose: 15.0 mg/kg/injection, schedule: Q01DX009 (ip), vehicle: other) 112 % of control; (dose: 20.0 mg/kg/injection, schedule: Q01DX009 (ip), vehicle: other) 120 % of control.

On to `CSc1cccc(NC(=O)N2CCCCC2C)c1` (configuration not stated), for which the T/C runs as follows: under setting [1], 100 % of control; under setting [2], 92 % of control; (dose: 200.0 mg/kg/injection, schedule: Q01DX009 (ip), vehicle: saline with Tween-80) 100 % of control.

In the case of `CCOC(=O)CCCCCCNC(=S)N1c2c(nc(N)[nH]c2=O)NCC1CNc1ccc(C(=O)NC(CCC(=O)O)C(=O)O)cc1` (configuration not stated), the T/C was 100 % of control (dose: 50.0 mg/kg/injection, schedule: Q01DX001 (ip), vehicle: sodium bicarbonate); 100 % of control (dose: 100.0 mg/kg/injection, schedule: Q01DX001 (ip), vehicle: sodium bicarbonate); 98 % of control (dose: 200.0 mg/kg/injection, schedule: Q01DX001 (ip), vehicle: sodium bicarbonate).

On to `COc1ccc(COCc2ccc(OC)c(O)c2)cc1O`, for which the T/C by setting is: under setting [1], 101 % of control; under setting [2], 99 % of control.

For `Cc1cc[n+](C2=C(Nc3ccccc3)C(=O)c3ccccc3C2=O)cc1`, the T/C is 106 % of control (dose: 12.5 mg/kg/injection, schedule: Q01DX005 (ip), vehicle: saline with Tween-80); 114 % of control (dose: 25.0 mg/kg/injection, schedule: Q01DX005 (ip), vehicle: saline with Tween-80); 116 % of control and 122 % of control under setting [3]; 118 % of control under setting [4].

As to `ClCCN(CCCl)c1ccc(N=Nc2cccc(Cl)c2Cl)cc1`, the T/C is, setting by setting: (dose: 150.0 mg/kg/injection, schedule: Q04DX003 (ip), vehicle: Klucel (hydroxypropylcellulose) (HPC)) 99 % of control; (dose: 300.0 mg/kg/injection, schedule: Q04DX003 (ip), vehicle: Klucel (hydroxypropylcellulose) (HPC)) 95 % of control.

Consider `Cc1nn(C(=S)S)c(C)c1N=Nc1cc(Cl)ccc1Cl`, for which the T/C by setting is: under setting [3], 100 % of control; under setting [4], 95 % of control; under setting [5], 95 % of control.

On to `NC(=O)CC(N)C(=O)O.[Cl-].[Cl-].[Cl-].[Cl-].[Pt+2]` (configuration not stated), for which the T/C runs as follows: (dose: 1.56 mg/kg/injection, schedule: Q01DX009 (ip), vehicle: water) 99 % of control; (dose: 3.13 mg/kg/injection, schedule: Q01DX009 (ip), vehicle: water) 100 % of control; (dose: 6.25 mg/kg/injection, schedule: Q01DX009 (ip), vehicle: water) 100 % of control.

Regarding `CCc1cc(C(=O)OC)c(=O)n2c1-c1[nH]c3ccccc3c1CC2`, the T/C is 94 % of control under setting [6], 95 % of control under setting [7] and 89 % of control under setting [8].

On to `C[N+]1(C)CCC(Cl)CC1`, for which the T/C was 104 % of control (dose: 3.75 mg/kg/injection, schedule: Q01DX005 (ip), vehicle: saline); 103 % of control (dose: 7.5 mg/kg/injection, schedule: Q01DX005 (ip), vehicle: saline); 99 % of control (dose: 15.0 mg/kg/injection, schedule: Q01DX005 (ip), vehicle: saline); 100 % of control and 102 % of control (dose: 30.0 mg/kg/injection, schedule: Q01DX005 (ip), vehicle: saline).

Take `Nc1nc[nH]c(=O)c1NC=O`: the T/C reads like this: (dose: 100.0 mg/kg/injection, schedule: Q04DX003 (ip), vehicle: saline) 120 % of control; (dose: 200.0 mg/kg/injection, schedule: Q04DX003 (ip), vehicle: saline) 100 % of control; (dose: 400.0 mg/kg/injection, schedule: Q04DX003 (ip), vehicle: saline) 110 % of control.

As for `CCc1nc(N)nc(N)c1-c1ccc(Cl)c(N=NN(C)C)c1`, the T/C is, setting by setting: under setting [3], 92 % of control; under setting [4], 97 % of control; under setting [5], 105 % of control.

With `c1ccc(Nc2ccc(CN3CCCC3)cc2)cc1`, the T/C under setting [9] was 107 % of control, the T/C under setting [10] is 107 % of control and the T/C under setting [11] is 107 % of control.

For `Cn1cnc2cc(Cl)c([N+](=O)[O-])cc2c1=O`, the T/C is 102 % of control (dose: 100.0 mg/kg/injection, schedule: Q04DX002 (ip), vehicle: Klucel (hydroxypropylcellulose) (HPC)); 110 % of control (dose: 200.0 mg/kg/injection, schedule: Q04DX002 (ip), vehicle: Klucel (hydroxypropylcellulose) (HPC)); 102 % of control (dose: 400.0 mg/kg/injection, schedule: Q04DX002 (ip), vehicle: Klucel (hydroxypropylcellulose) (HPC)).

Take `CC(=O)OC1CC(C)(O)Cc2cc3c(c(O)c21)C(=O)c1c(O)cc2c(c1C3=O)OC1OC2(C)C(O)C(N(C)C)C1O` (configuration not stated): the T/C reads like this: (dose: 3.5 mg/kg/injection, schedule: Q01DX009 (ip), vehicle: other) 153 % of control; (dose: 7.0 mg/kg/injection, schedule: Q01DX009 (ip), vehicle: other) 166 % of control; (dose: 14.0 mg/kg/injection, schedule: Q01DX009 (ip), vehicle: other) 167 % of control.

In the case of `O=C(CC(O)(C(F)(F)F)C(F)(F)F)c1ccc(C(=O)CC(O)(C(F)(F)F)C(F)(F)F)cc1`, the T/C (dose: 12.5 mg/kg/injection, schedule: Q01DX009 (ip), vehicle: other) is 100 % of control; the T/C (dose: 25.0 mg/kg/injection, schedule: Q01DX009 (ip), vehicle: other) is 100 % of control; the T/C (dose: 50.0 mg/kg/injection, schedule: Q01DX009 (ip), vehicle: other) is 100 % of control; the T/C (dose: 66.0 mg/kg/injection, schedule: Q04DX003 (ip), vehicle: other) was 95 % of control; the T/C (dose: 100.0 mg/kg/injection, schedule: Q04DX003 (ip), vehicle: other) was 95 % of control; the T/C (dose: 150.0 mg/kg/injection, schedule: Q04DX003 (ip), vehicle: other) is 100 % of control.

In the case of `CCCCCSc1nc2ccc(NCN3C(=O)C4C5C=CC(C5)C4C3=O)cc2s1` (configuration not stated), the T/C runs as follows: (dose: 50.0 mg/kg/injection, schedule: Q01DX009 (ip), vehicle: Klucel (hydroxypropylcellulose) (HPC)) 98 % of control; (dose: 100.0 mg/kg/injection, schedule: Q01DX009 (ip), vehicle: Klucel (hydroxypropylcellulose) (HPC)) 86 % of control; (dose: 200.0 mg/kg/injection, schedule: Q01DX009 (ip), vehicle: Klucel (hydroxypropylcellulose) (HPC)) 92 % of control.

As for `CCCCOc1ccc(C(C)c2cc3c(cc2OC)OCO3)cc1` (configuration not stated), the T/C runs as follows: (dose: 25.0 mg/kg/injection, schedule: Q01DX005 (ip), vehicle: Klucel (hydroxypropylcellulose) (HPC)) 107 % of control; under setting [6], 95 % of control; under setting [7], 101 % of control; under setting [8], 98 % of control.

As for `Cc1c(-c2ccccc2)n[nH]c1-c1[nH]nc(-c2ccccc2)c1C`, the T/C is 93 % of control under setting [9], 94 % of control under setting [10] and 93 % of control under setting [11].

As for `CN=C(c1ccc(NC(=O)c2ccc(C(=O)Nc3ccc(C(=NC)N(C)C4CCCCC4)cc3)cc2)cc1)N(C)C1CCCCC1`, the T/C runs as follows: (dose: 0.78 mg/kg/injection, schedule: Q01DX005 (ip), vehicle: Klucel (hydroxypropylcellulose) (HPC)) 104 % of control; (dose: 1.56 mg/kg/injection, schedule: Q01DX005 (ip), vehicle: Klucel (hydroxypropylcellulose) (HPC)) 101 % of control; (dose: 3.12 mg/kg/injection, schedule: Q01DX005 (ip), vehicle: Klucel (hydroxypropylcellulose) (HPC)) 104 % of control.

`O=C1OC(C2OC(=O)C(=O)C2C(=O)c2ccc([N+](=O)[O-])cc2)C(C(=O)c2ccc([N+](=O)[O-])cc2)C1=O` (configuration not stated): the T/C runs as follows: (dose: 60.0 mg/kg/injection, schedule: Q01DX005 (ip), vehicle: saline with Tween-80) 98 % of control; (dose: 120.0 mg/kg/injection, schedule: Q01DX005 (ip), vehicle: saline with Tween-80) 94 % of control.
